Reference: patent US20250152585A1, “PHARMACEUTICAL COMPOUND” (Duke Street Bio Limited, priority 2022, published 2025)
Read-outs that look alike come from different tables or passages of the source.

What was measured:
[1] = target: T1, N-terminally FLAG-tagged PARP2 (amino acids 1-583) (Homo sapiens, UniProt Q9UGN5); assay: PARP2 probe displacement HTRF assay; assay type: binding; settings: binned Kd
T1 construct: N-terminally FLAG-tagged PARP2 (amino acids 1-583)
Description: Data analysis was performed identical as for PARP1.

[2] = target: T2, full length N-terminally FLAG-tagged PARP1 (Homo sapiens, UniProt P09874); assay: PARP1 probe displacement HTRF assay; settings: for Selectivity: PARP1 over PARP2, ratio Kd (PARP2)/Kd (PARP1); for Kd: binned Kd
T2 sequence (P09874 whole entry): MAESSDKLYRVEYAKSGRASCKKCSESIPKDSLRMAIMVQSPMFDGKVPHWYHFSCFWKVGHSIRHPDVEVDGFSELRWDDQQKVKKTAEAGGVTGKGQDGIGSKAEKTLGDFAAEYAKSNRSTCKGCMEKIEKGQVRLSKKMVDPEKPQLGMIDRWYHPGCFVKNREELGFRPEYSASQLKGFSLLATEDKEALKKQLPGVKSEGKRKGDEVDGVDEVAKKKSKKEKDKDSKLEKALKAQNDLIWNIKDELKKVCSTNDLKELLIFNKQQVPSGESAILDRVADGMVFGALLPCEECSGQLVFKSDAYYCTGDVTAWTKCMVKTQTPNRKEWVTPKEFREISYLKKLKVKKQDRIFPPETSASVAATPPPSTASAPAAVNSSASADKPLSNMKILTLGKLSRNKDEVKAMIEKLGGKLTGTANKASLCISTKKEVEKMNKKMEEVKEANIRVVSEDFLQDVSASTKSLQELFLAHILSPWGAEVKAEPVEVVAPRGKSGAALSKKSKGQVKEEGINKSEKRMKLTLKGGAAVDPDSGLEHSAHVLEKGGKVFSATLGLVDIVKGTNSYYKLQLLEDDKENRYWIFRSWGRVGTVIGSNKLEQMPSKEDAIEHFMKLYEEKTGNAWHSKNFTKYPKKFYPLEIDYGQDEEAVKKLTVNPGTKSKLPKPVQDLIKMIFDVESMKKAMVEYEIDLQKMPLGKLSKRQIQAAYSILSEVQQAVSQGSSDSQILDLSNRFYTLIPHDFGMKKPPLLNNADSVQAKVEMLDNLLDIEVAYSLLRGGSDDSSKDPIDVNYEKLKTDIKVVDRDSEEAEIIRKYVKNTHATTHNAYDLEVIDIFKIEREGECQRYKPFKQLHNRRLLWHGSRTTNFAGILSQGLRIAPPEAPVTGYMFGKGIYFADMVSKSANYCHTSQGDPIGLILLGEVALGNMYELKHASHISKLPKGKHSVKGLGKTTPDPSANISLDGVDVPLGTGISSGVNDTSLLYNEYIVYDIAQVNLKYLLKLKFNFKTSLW

[3] = target: T2, full length N-terminally FLAG-tagged PARP1; assay: PARP1 biochemical DELFIA assay (auto-PARylation); set-up: recombinant full length human N-terminally FLAG-tagged PARP1
[4] = read-out: PARP1 HTRF, PARP1 probe displacement HTRF
[5] = binned IC50, PARP1 biochemical DELFIA assay
[6] = read-out: PARP1 HTRF, probe displacement HTRF
[7] = binned IC50, biochemical auto-PARylation assay
[8] = PARP1 HTRF, PARP1 probe displacement HTRF
[9] = PARP1 HTRF, probe displacement HTRF

T1 sequence (Q9UGN5 whole entry, the tested form may be a part): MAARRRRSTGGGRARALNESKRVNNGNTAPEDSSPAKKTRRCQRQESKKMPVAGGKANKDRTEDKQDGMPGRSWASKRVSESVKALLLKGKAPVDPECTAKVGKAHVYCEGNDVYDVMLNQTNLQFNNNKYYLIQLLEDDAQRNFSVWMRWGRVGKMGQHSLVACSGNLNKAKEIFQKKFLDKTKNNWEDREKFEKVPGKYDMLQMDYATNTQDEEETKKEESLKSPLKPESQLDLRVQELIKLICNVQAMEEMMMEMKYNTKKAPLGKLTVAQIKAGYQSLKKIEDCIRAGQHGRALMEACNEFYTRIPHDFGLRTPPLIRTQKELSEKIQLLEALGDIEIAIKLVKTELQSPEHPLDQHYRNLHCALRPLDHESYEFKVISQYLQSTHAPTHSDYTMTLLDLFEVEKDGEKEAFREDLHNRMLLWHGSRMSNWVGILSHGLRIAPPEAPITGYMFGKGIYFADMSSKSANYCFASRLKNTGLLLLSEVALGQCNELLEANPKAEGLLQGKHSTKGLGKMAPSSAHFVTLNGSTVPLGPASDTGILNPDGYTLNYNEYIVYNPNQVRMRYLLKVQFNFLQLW

Row | SMILES | Kd ([1]; PARP2 probe displacement HTRF) [nM] | Kd [2, 4] [nM] | IC50 [3, 5] [nM] | Kd ([1]; probe displacement HTRF) [nM] | Kd [2, 6] [nM] | IC50 [3, 7] [nM] | Kd [2, 8] [nM] | Kd [2, 9] [nM] | Selectivity ([2]; probe displacement HTRF)
1 | N#Cc1ccc(N2CCC(N3CCCC(c4nc5ccccc5c(=O)[nH]4)C3)CC2)nc1 (single isomer, unassigned) [Compound 74b] | 1000 to 10000 | 10 to 100 | 10 to 100 | – | – | – | – | – | ++ (++ indicates a value of 50 to less than 100)
2 | CNC(=O)c1ccc(N2CCC(N3CCC(c4cc5c(F)cncc5c(=O)[nH]4)C3)CC2)cn1 (single isomer, unassigned) [Compound 331a] | – | – | – | 100 to 1000 | < 10 | < 10 | – | – | +++ (+++ indicate a value of at least 100)
3 | CNC(=O)c1ccc(N2CCC(N3CCC(c4cc5cccc(F)c5c(=O)[nH]4)C3)CC2)c(F)c1 (single isomer, unassigned) [Compound 371a] | – | – | – | 10 to 100 | < 10 | < 10 | – | – | +++ (+++ indicate a value of at least 100)
4 | CNC(=O)c1ccc(N2CCC(N3CC(c4cc5cccc(F)c5c(=O)[nH]4)CC3=O)CC2)cn1 (racemic) [Compound 362rac] | – | – | – | 1000 to 10000 | < 10 | < 10 | – | – | +++ (+++ indicate a value of at least 100)
5 | N#Cc1ccc(N2CCC(N3CCC(c4nc5ccccc5c(=O)[nH]4)C3)CC2)cc1 (single isomer, unassigned) [Compound 34b] | 1000 to 10000 | < 10 | < 10 | – | – | – | – | – | +++ (+++ indicate a value of at least 100)
6 | CS(=O)(=O)Nc1ccc(N2CCC(N3CCC(c4cc5ccccc5c(=O)[nH]4)C3)CC2)cn1 (single isomer, unassigned) [Compound 252a] | – | – | – | 1000 to 10000 | 100 to 1000 | 100 to 1000 | – | – | − (− indicates a value of less than 10)
7 | CS(=O)(=O)Nc1ccc(N2CCC(N3CCC(c4cc5ccccc5c(=O)[nH]4)C3)CC2)cc1 (single isomer, unassigned) [Compound 251b] | – | – | – | 100 to 1000 | 10 to 100 | 10 to 100 | – | – | + (+ indicates a value of 10 to less than 50)
8 | CNC(=O)c1ccc(N2CCC(N3CCC(c4cc5ncc(Cl)cc5c(=O)[nH]4)C3)CC2)c(F)n1 (single isomer, unassigned) [Compound 344a] | – | – | – | > 10000 | < 10 | < 10 | – | – | +++ (+++ indicate a value of at least 100)
9 | CNC(=O)c1ccc(N2CCC(N3CCC(c4cc5cccc(F)c5c(=O)[nH]4)C3)CC2)c(F)n1 (single isomer, unassigned) [Compound 184a, 6-fluoro-5-[4-[3-(8-fluoro-1-oxo-2H-isoquinolin-3-yl)pyrrolidin-1-yl]piperidin-1-yl]-N-methylpyridine-2-carboxamide] | 1000 to 10000 | – | < 10 | – | – | – | < 10 | – | +++ (+++ indicate a value of at least 100)
10 | CNC(=O)c1ccc(N2CCC(N3CCC(c4nc5c(c(=O)[nH]4)COC5)C3)CC2)cn1 (single isomer, unassigned) [Compound 272b] | – | – | – | > 10000 | 100 to 1000 | 100 to 1000 | – | – | + (+ indicates a value of 10 to less than 50)
11 | CNC(=O)c1ccc(N2CCC(N3CCC(c4cc5ccc(F)cc5c(=O)[nH]4)C3)CC2)cc1F (single isomer, unassigned) [Compound 270b] | – | – | – | 10 to 100 | < 10 | < 10 | – | – | + (+ indicates a value of 10 to less than 50)
12 | O=c1[nH]c(C2CCN(C3CCC(F)(F)CC3)C2)nc2ccccc12 (single isomer, unassigned) [Compound 4a] | 100 to 1000 | 100 to 1000 | 100 to 1000 | – | – | – | – | – | − (− indicates a value of less than 10)
13 | CCc1ccc(C2CCN(C3CCN(c4cnc(C(=O)NC5CC5)c(F)c4)CC3)C2)[nH]c1=O (single isomer, unassigned) [Compound 408a] | – | – | – | 100 to 1000 | < 10 | < 10 | – | – | +++ (+++ indicate a value of at least 100)
14 | N#Cc1ccc(N2CCC(N3CCC(c4cc5ccc(F)cc5c(=O)[nH]4)C3)CC2)c(F)c1 (single isomer, unassigned) [Compound 385a] | – | – | – | 1000 to 10000 | < 10 | < 10 | – | – | +++ (+++ indicate a value of at least 100)
15 | CCc1ccc(C2CCN(C3CCN(c4ccc(C#N)cn4)CC3)C2)[nH]c1=O (single isomer, unassigned) [Compound 332b] | – | – | – | 1000 to 10000 | < 10 | < 10 | – | – | +++ (+++ indicate a value of at least 100)
16 | CNC(=O)c1ncc(N2CCC(N3CC4(c5nc6ccc(F)cc6c(=O)[nH]5)CC3C4)CC2)cc1F [Compound 379] | – | – | – | 100 to 1000 | – | < 10 | – | < 10 | +++ (+++ indicate a value of at least 100)
17 | CNC(=O)c1ccc(N2CCC(N3CCC(c4cc5c(c(=O)[nH]4)CCCN5)C3)CC2)cn1 (racemic) [Compound 233rac] | – | – | – | 100 to 1000 | < 10 | < 10 | – | – | +++ (+++ indicate a value of at least 100)
18 | O=C(NC1CC1)c1ccc(N2CCC(N3CC4(c5nc6cccc(F)c6c(=O)[nH]5)CC3C4)CC2)c(F)n1 [Compound 376] | – | – | – | 100 to 1000 | – | < 10 | – | < 10 | +++ (+++ indicate a value of at least 100)
19 | O=c1[nH]c(C2CCN(C3CCN(c4ccc(Cl)cc4)CC3)C2)nc2ccccc12 (single isomer, unassigned) [Compound 43a] | 100 to 1000 | 10 to 100 | 100 to 1000 | – | – | – | – | – | − (− indicates a value of less than 10)
20 | N#Cc1nc(C(=O)NC2CC2)ccc1N1CCC(N2CCC(c3cc4ccc(F)cc4c(=O)[nH]3)C2)CC1 (single isomer, unassigned) [Compound 397a] | – | – | – | 100 to 1000 | < 10 | < 10 | – | – | +++ (+++ indicate a value of at least 100)
21 | CNC(=O)c1ccc(N2CCC(N3CCC(c4nc5c(F)ccc(F)c5c(=O)[nH]4)C3)CC2)cn1 (single isomer, unassigned) [Compound 182b] | 100 to 1000 | < 10 | < 10 | – | – | – | – | – | +++ (+++ indicate a value of at least 100)
22 | CCc1ccc(C2CCN(C3CCN(c4ccc(C#N)cc4)CC3)C2)[nH]c1=O (single isomer, unassigned) [Compound 317b] | – | – | – | 100 to 1000 | < 10 | < 10 | – | – | +++ (+++ indicate a value of at least 100)

Second part, led by results:

Row | Kd ([1]; PARP2 probe displacement HTRF) [nM] | Kd [2, 4] [nM] | IC50 [3, 5] [nM] | Kd ([1]; probe displacement HTRF) [nM] | Kd [2, 6] [nM] | IC50 [3, 7] [nM] | Kd [2, 8] [nM] | Kd [2, 9] [nM] | SMILES | Selectivity ([2]; probe displacement HTRF)
23 | 1000 to 10000 | – | 10 to 100 | – | – | – | 10 to 100 | – | CNC(=O)c1ccc(N2CCC(N3CC(c4nc5ccccc5c(=O)[nH]4)C3)CC2)cn1 [Compound 27] | + (+ indicates a value of 10 to less than 50)
24 | > 10000 | < 10 | 10 to 100 | – | – | – | – | – | NC(=O)c1ccc(N2CCC(N3CCCC(c4nc5ccccc5c(=O)[nH]4)C3)CC2)cn1 (single isomer, unassigned) [Compound 109a] | +++ (+++ indicate a value of at least 100)
25 | 1000 to 10000 | 100 to 1000 | 100 to 1000 | – | – | – | – | – | COCCNC(=O)c1ccc(N2CCC(N3CCCC(c4nc5ccccc5c(=O)[nH]4)C3)CC2)cn1 (single isomer, unassigned) [Compound 116b] | − (− indicates a value of less than 10)
26 | > 10000 | 1000 to 10000 | 1000 to 10000 | – | – | – | – | – | CNC(=O)c1ccc(N2CCC(N3CCCC(c4ccc(OC)c(=O)[nH]4)C3)CC2)cn1 (single isomer, unassigned) [Compound 147a] | − (− indicates a value of less than 10)
27 | – | – | – | 10 to 100 | < 10 | < 10 | – | – | CNC(=O)c1ccc(N2CCC(N3CCC(c4[nH]c(=O)c5cc(F)ccc5c4F)C3)CC2)cn1 (single isomer, unassigned) [Compound 370b] | ++ (++ indicates a value of 50 to less than 100)
28 | – | – | – | 1000 to 10000 | 100 to 1000 | 100 to 1000 | – | – | CS(=O)(=O)Nc1ccc(N2CCC(N3CCC(c4nc5ccccc5c(=O)[nH]4)C3)CC2)cn1 (single isomer, unassigned) [Compound 291b] | − (− indicates a value of less than 10)
29 | – | – | – | > 10000 | 100 to 1000 | 100 to 1000 | – | – | CNC(=O)c1ccc(N2CCC(N3CCCC(O)(c4nc5ccccc5c(=O)[nH]4)C3)CC2)cn1 (single isomer, unassigned) [Compound 327a] | + (+ indicates a value of 10 to less than 50)
30 | 1000 to 10000 | 100 to 1000 | 100 to 1000 | – | – | – | – | – | O=C(NCC(F)(F)F)c1ccc(N2CCC(N3CCCC(c4nc5ccccc5c(=O)[nH]4)C3)CC2)cn1 (single isomer, unassigned) [Compound 115a] | + (+ indicates a value of 10 to less than 50)
31 | > 10000 | 1000 to 10000 | 1000 to 10000 | – | – | – | – | – | CNC(=O)c1ccc(N2CC(N3CCCC(c4nc5ccccc5c(=O)[nH]4)C3)C2)cn1 (single isomer, unassigned) [Compound 23b] | − (− indicates a value of less than 10)
32 | 1000 to 10000 | 100 to 1000 | 100 to 1000 | – | – | – | – | – | CNC(=O)c1ccc(N2CCC(N3CCCC(c4nc5c(F)cccc5c(=O)[nH]4)C3)CC2)cn1 (single isomer, unassigned) [Compound 114b] | + (+ indicates a value of 10 to less than 50)
